Results: patent US7259140B2, “Heparin-binding peptides and uses thereof” (Thomas Jefferson University, priority 2003, dated 2007)
Ends that are not written are not given here.

Key:
[1] = tested on: platelets; test: Platelet aggregation with aggregation-inducing agents; format: cell-based, human; details: 12 μg/ml; Lovenox 0.5 U/ml; collagen, ADP, ristocetin, epinephrine, SFFLRN, A23187
Description: Plasma from six volunteers was tested with various aggregation inducing agents, at several concentrations of each agent, and with six different peptides of the invention. The effect of heparin-binding peptides of the invention on platelet aggregation was determined using standard procedures as previously described. The six peptides which were synthesized and tested were: (ARKKAAKA)4 (SEQ ID NO:31), ARKKAAKA(A16)ARKKAAKA (SEQ ID NO:30), (ARKKAAKA)3ARKKCAKA (SEQ ID NO:33), (ARKKAAKA)3VLVLVLVL (SEQ ID NO:5), C(ARKKAAKA)4C (SEQ ID NO:34), and (AKKARA)6 (SEQ ID NO:32).
The aggregation-inducing agents tested were: collagen, adenosine diphosphate (ADP), ristocetin, epinephrine, the thrombin receptor peptide SFFLRN, and calcium ionophore A23187. Platelets were subjected to protamine, or to SEQ ID NOS:31, 33, 30, 5, 34, or 32 at 12 μg/ml, and Lovenox® at 0.5 U/ml. Platelet aggregation in response to agonists was monitored and percent aggregation was determined over a five minute interval.
The agonist was added after equilibration of the platelets for one minute.

[2] = Hemodynamic effects in rats without prior Lovenox; details: 2 mg per rat, no Lovenox
[3] = tested on: anti-Factor Xa Activity of Unfractionated Heparin; test: Anti-Factor Xa assay: neutralization of unfractionated heparin in citrate or plasma in vitro; format: biochemical, human; details: for Unfractionated Heparin Neutralized: UFH 0.7 U/ml
Description: The ability of peptides such as (ARKKAAKA)3VLVLVLVL (SEQ ID NO:5) to neutralize the anti-Factor Xa activity of UFH and LMWH in vitro was tested using the Stachrom Heparin kit (Diagnostica Stago), a standard hematology laboratory assay used to measure the anti-Factor Xa activity of heparin. The assay was performed using the low molecular weight heparin enoxaparin sodium (Lovenox®, Aventis Pharmaceuticals, Inc.), unfractionated heparin (UFH), or the non-heparin glycosaminoglycan danaparoid sodium (Orgaran®, Organon Inc., West Orange, N.J.) in 0.32% citrate or in plasma anticoagulated with 0.32% citrate. Enoxaparin is commonly used clinically as a low molecular weight heparin (LMWH). Danaparoid is commonly used clinically as a non-heparin glycosaminoglycan anticoagulant. Currently, the only FDA approved drug to target UFH is protamine, which is not effective in vivo against LMWH or a non-heparin glycosaminoglycan such as danaparoid. Buffer and ATIII are added to form the heparin/ATIII complex, peptide is added, then Factor Xa, reporter dye substrate for Factor Xa activity, and stop solution, and the dye concentration is read at 405 nm. The absorbance of the dye increases with increasing Factor Xa activity, and thus is inversely proportional to the heparin (anti-Factor Xa activity) concentration. Peptides were tested in plasma obtained from three volunteers (A, B, and C). Platelet function inhibitors PG12 and theophylline were added to the blood immediately upon collection. […]

[4] = tested on: unfractionated heparin (thrombin-induced clot formation); test: Thrombin neutralization assay: clotting time of citrated plasma in the presence of unfractionated heparin; format: biochemical, human; details: for Time for clot formation: UFH 0.5 IU/ml
Description: It was determined whether heparin-binding peptides of the invention can neutralize unfractionated heparin using the thrombin neutralization assay. The six peptides that were synthesized and used in this Example are: (ARKKAAKA)3VLVLVLVL (SEQ ID NO:5); (ARKKAAKA)(A16)(ARKKAAKA) (SEQ ID NO:30); (ARKKAAKA)4 (SEQ ID NO:31); (AKKARA)6 (SEQ ID NO:32); (ARKKAAKA)3(ARKKCAKA) (SEQ ID NO:33); and cyclized C(ARKKAAKA)4C (SEQ ID NO:34); Citrated plasma was pipetted into a glass tube. Thrombin was added, the tube was manually rotated, and clotting time was determined by observation of clot formation. Normal clotting time is 19-22 seconds.
As a control, to assess the effect of heparin on clot formation, unfractionated heparin was added to the plasma at 0.5 IU anti-thrombin activity/ml and then thrombin was added. Clotting time in the presence of heparin alone was greater than 3 minutes.
To test the effect of peptides, heparin and six peptides at the concentrations indicated in Table 4 were added to the plasma, the mixture was allowed to stand at room temperature for 1 minute, and thrombin was added. The time for the clot to form is indicated. Experiments were performed using plasma from three volunteers—A, B, and C.

ARKKAAKAAAAAAAAAAAAAAAAAARKKAAKA [ARKKAAKA(A16)ARKKAAKA, reference compound]
effect on platelet aggregation [1]: no significant inhibition or enhancement of aggregation
effect on blood pressure [2]: did not affect blood pressure
Unfractionated Heparin Neutralized ([3]; 1 μg/ml Peptide, A Plasma): 0.080 ± 0.050 U/ml
Unfractionated Heparin Neutralized ([3]; 1 μg/ml Peptide, B Plasma): 0.0 U/ml
Unfractionated Heparin Neutralized ([3]; 1 μg/ml Peptide, C Plasma): 0.0 U/ml
Unfractionated Heparin Neutralized ([3]; 1 μg/ml Peptide, Citrate): 0.040 ± 0.017 U/ml
Unfractionated Heparin Neutralized ([3]; 6 μg/ml Peptide, A Plasma): 0.045 ± 0.029 U/ml
Unfractionated Heparin Neutralized ([3]; 6 μg/ml Peptide, B Plasma): 0.005 ± 0.007 U/ml
Unfractionated Heparin Neutralized ([3]; 6 μg/ml Peptide, C Plasma): 0.008 ± 0.012 U/ml
Unfractionated Heparin Neutralized ([3]; 6 μg/ml Peptide, Citrate): 0.064 ± 0.020 U/ml
Unfractionated Heparin Neutralized ([3]; 12 μg/ml Peptide, A Plasma): 0.026 ± 0.018 U/ml
Unfractionated Heparin Neutralized ([3]; 12 μg/ml Peptide, B Plasma): 0.008 ± 0.012 U/ml
Unfractionated Heparin Neutralized ([3]; 12 μg/ml Peptide, C Plasma): 0.0 U/ml
Unfractionated Heparin Neutralized ([3]; 12 μg/ml Peptide, Citrate): 0.047 ± 0.025 U/ml
Unfractionated Heparin Neutralized ([3]; 60 μg/ml Peptide, A Plasma): 0.100 ± 0.021 U/ml
Unfractionated Heparin Neutralized ([3]; 60 μg/ml Peptide, B Plasma): 0.084 ± 0.034 U/ml
Unfractionated Heparin Neutralized ([3]; 60 μg/ml Peptide, C Plasma): 0.022 ± 0.017 U/ml
Unfractionated Heparin Neutralized ([3]; 60 μg/ml Peptide, Citrate): 0.156 ± 0.046 U/ml
Unfractionated Heparin Neutralized ([3]; 120 μg/ml Peptide, A Plasma): 0.112 ± 0.036 U/ml
Unfractionated Heparin Neutralized ([3]; 120 μg/ml Peptide, B Plasma): 0.084 ± 0.018 U/ml
Unfractionated Heparin Neutralized ([3]; 120 μg/ml Peptide, C Plasma): 0.090 ± 0.019 U/ml
Unfractionated Heparin Neutralized ([3]; 120 μg/ml Peptide, Citrate): 0.199 ± 0.039 U/ml
effect in the anti-Factor Xa assay for UFH ([3]; in both citrate and plasma): minimal effects
effectiveness in thrombin neutralization assay [4]: ineffective
Time for clot formation ([4]; 6.0 μg peptide/0.1 ml, plasma B): 55.00 ± 4.08 s
Time for clot formation ([4]; 6.5 μg peptide/0.1 ml, plasma A): 76.33 ± 4.19 s
Time for clot formation ([4]; 6.5 μg peptide/0.1 ml, plasma C): 48.67 ± 7.72 s
Time for clot formation ([4]; 7.0 μg peptide/0.1 ml, plasma A): 61.00 ± 2.94 s
Time for clot formation ([4]; 7.0 μg peptide/0.1 ml, plasma B): 85.67 ± 3.30 s
Time for clot formation ([4]; 7.0 μg peptide/0.1 ml, plasma C): 47.67 ± 3.77 s
Time for clot formation ([4]; 7.5 μg peptide/0.1 ml, plasma A): 58.67 ± 1.89 s
Time for clot formation ([4]; 7.5 μg peptide/0.1 ml, plasma C): 180.0 ± 0.00 s
